Patent US12479794B2, “Acetophenone oxime compound and application thereof” (Medshine Discovery Inc., priority 2020, dated 2025)
pEC50: −log10 of the molar value.

Experiments:
[1] = biological target: T1, S1P2 (Homo sapiens, UniProt O95136); assay: In vitro agonistic activity on S1P2, PathHunter cell line; assay type: cell-based; settings: PathHunter cells
T1 construct: expressed in transfected cells
Procedure: Assay Example 5: In Vitro Evaluation of the Agonistic Activity of the Compound of the Present Disclosure on S1P2, S1P3 and S1P4
Object of the assay: To detect the agonistic activity of the compound on S1P2, S1P3, and S1P4
• 1. PathHunter cell line was expanded from freezer according to standard procedures. • 2. Cells were seeded into a white 384-well microplate in a total volume of 20 μL and incubated at 37° C. for an appropriate time prior to testing. II. Agonist Assay • 1. For the agonist assay, cells were incubated with a sample to induce a response. • 2. Stock solution was stored in a buffer at a concentration of 5 times the concentration to be tested. • 3. 5 μl of the stock solution sample at a concentration of 5 times the concentration to be tested was added to the cells and incubated at 37° C. or room temperature for 90-180 min with a vehicle concentration of 1%. III. Signal Detection • 1. […] Chemiluminescent Signal detection was performed using a PerkinElmer Envision™ instrument, and the microplate was read after signal generation. […] The activity of the compound was analyzed using the CBIS data analysis suite (ChemInnovation, CA). • 2. For the agonist mode assay, the percent activity was calculated using the following formula: % Activity=100%×(Mean RLU of the Assay Sample−Mean RLU of the Blank Control)/(Mean MAX Control Ligand−Mean RLU of the Blank Control).

[2] = biological target: T2, S1P1 (Homo sapiens, UniProt P21453); assay: In vitro agonistic activity on S1P1, U2OS-EDG1 cells, LiveBLAzer FRET B/G; assay type: cell-based
T2 construct: host or cells: U2OS
T2 sequence (P21453 whole entry): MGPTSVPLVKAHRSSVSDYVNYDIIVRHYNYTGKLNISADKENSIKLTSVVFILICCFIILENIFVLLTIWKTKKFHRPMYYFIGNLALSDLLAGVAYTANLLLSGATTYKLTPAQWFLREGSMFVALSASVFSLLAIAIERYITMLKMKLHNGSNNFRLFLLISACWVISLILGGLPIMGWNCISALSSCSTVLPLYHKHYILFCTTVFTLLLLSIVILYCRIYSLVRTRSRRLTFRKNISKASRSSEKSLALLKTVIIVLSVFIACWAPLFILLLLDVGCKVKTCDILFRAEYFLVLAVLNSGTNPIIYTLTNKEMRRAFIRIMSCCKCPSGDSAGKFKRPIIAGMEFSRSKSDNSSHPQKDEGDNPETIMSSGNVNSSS
Procedure: Assay Example 1: In Vitro Evaluation of the Agonistic Activity of the Compounds of the Present Disclosure on S1P1
Object of the assay: To detect the agonistic activity of compounds on S1P1
• 1. Cells U2OS-EDG1 (Batch No.: Invitrogen-K1520) were taken out of a liquid nitrogen tank and placed in a 37° C. water bath to thaw quickly; • 2. The cell suspension was aspirated into a 15 ml centrifuge tube, resuspended in 5 ml of preheated medium, and centrifuged at 1000 rpm for 5 min; • 3. The supernatant was discarded. The cells were resuspended in 10 ml of medium, transferred into a T75 culture flask, and cultivated in an incubator with 5% CO2 at 37° C. II. Agonist Assay • 1. The compounds were diluted to working concentrations, and serially diluted 3-fold by Echo 555 (manufacturer: Labcyte) to obtain 10 concentrations; 200 nL of each concentration of the compound was transferred to a cell plate and centrifuged at 1000 rpm for 15 seconds; • 2. Culture medium was aspirated from the culture flask; 4 mL of Dulbecco's phosphate buffer (DPBS, supplier: Coring, item No.: 21-031-CVR, batch No.: 03318006) was added, and the residual serum was washed away; 2 mL of trypsin was added; The mixture was incubated in an incubator at 37° C. for 2 min, and the cells were digested; 10 mL of seeding medium was added to resuspend the cells; 0.6 mL of cell suspension was taken out and counted; • 3. The density of cells was adjusted to 1.88E+05 cells/mL using seeding medium, with 40 μL per well (7500\well); 40 μL of FreeStyle™ Expression medium was added around the cell plate; The plate was let stand at room temperature for 15 min and incubated at 37° C. with 5% CO2 for 20 hours. III. Signal Detection • 1. LiveBLAzer™-FRET B/G Substrate (CCF4-AM) assay reagents were formulated according to the instructions; • 2. 8 μL of 6×Substrate Mixture was added to each well of the cell plate; The plate was centrifuged at 1000 rpm for 15 seconds, covered with a film, and incubated at 23° C. for 2 hours; The cell plate was subjected to Envision […] detection. IV. Data Analysis • 1. The raw data were converted into % Effect by using an equation, and the EC50 value can be obtained by curve fitting with four parameters [“log(agonist) vs. response—Variable slope” model in GraphPad Prism]; • 2. Calculation formula: Ratio=(460 nm−blank)/(535 nm−blank) % Effect=(SampleRatio−Ave LCRatio)/(Ave HCRatio−Ave LCRatio)×100%

[3] = Metabolite identification after incubation in human hepatocytes; assay type: in vitro ADME; settings: 10 μM, 37° C., 2 hours
Procedure: Assay Example 4: Analysis and Identification of Metabolites of the Compound in Human Liver Microsome and Hepatocyte Incubation System
By using high-resolution mass spectrometry, the metabolite produced by the incubation of compound 32B in human liver microsomes and human hepatocytes was found, and identified for its structure; the percentage content of compound 32B and its metabolite was calculated by using LC-UV; and the possible biotransformation pathway of compound 32B in human liver microsomes and human hepatocytes in vitro was studied.
Compound 32B (10 μM) was incubated in mouse, rat, canine, monkey, and human hepatocyte systems at 37° C. for 120 min. 7-ethoxycoumarin (7-EC, 30 μM) was used as a positive control to evaluate the enzymatic metabolic activity in the hepatocyte incubation system. The incubated sample was analyzed by LC-UV-MS. The structure of each metabolite was resolved and identified based on its primary and secondary mass spectrometry signals and/or comparison with a standard. The relative percentage of the UV-integrated peak area of each metabolite was given through data collected from the sample by HPLC-UV-MS, and the possible structure of the metabolite and its possible metabolic pathway in various genera of hepatocytes were inferred from the mass spectrometry information of the metabolite.

T1 sequence (O95136 whole entry): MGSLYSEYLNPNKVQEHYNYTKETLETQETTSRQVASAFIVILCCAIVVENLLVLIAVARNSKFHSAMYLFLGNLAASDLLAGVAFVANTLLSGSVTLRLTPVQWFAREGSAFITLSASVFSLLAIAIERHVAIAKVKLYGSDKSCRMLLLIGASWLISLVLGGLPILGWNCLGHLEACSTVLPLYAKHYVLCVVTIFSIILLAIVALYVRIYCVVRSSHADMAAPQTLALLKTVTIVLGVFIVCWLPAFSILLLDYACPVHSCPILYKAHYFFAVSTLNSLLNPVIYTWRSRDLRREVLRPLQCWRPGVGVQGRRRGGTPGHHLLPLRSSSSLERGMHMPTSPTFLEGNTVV

CC(=NOCc1ccc(OC(C)C)c(C(F)(F)F)c1)c1ccc2c(c1)CCC2N1CC(C(=O)O)C1 (single isomer, unassigned) [Compound 32B]
pEC50 [1]: < 6.52
pEC50 [2]: 8.94
Emax of agonistic activity on S1P1 ([2]; % Effect): nM, 103.4%
Metabolites detected [3]: no other metabolite was detected
Relative abundance of the original drug [3]: 100.00%
